From US20100210590A1, “COMPOSITIONS AND TREATMENTS FOR SEIZURE-RELATED DISORDERS” (NORTHWESTERN UNIVERSITY, priority 1995, published 2010)
Structures can show the parent of a compound that is named as a salt.

Columns and labels:
[1] = Solubility (logS experimental, aqueous solubility, DMSO); assay type: physicochemical
[2] = test system: KA-induced seizures on P15; experiment: Y-maze test of spontaneous alternation after KA-induced early-life seizures; assay type: in vivo, rat; conditions: Mzc 5 mg/kg ip at 3 and 9 hr after KA on P15; after 30 days recovery; mean±SEM
Description: On either postnatal day (P)15 or 45, rats were administered either KA (Ocean Produce International, Nova Scotia) or equivalent volume of vehicle, phosphate-buffered saline (PBS, pH 7.4) (2). The dose of KA on P 15 (5 mg/kg) and P45 (15 mg/kg) was based on the age-dependent difference in threshold for KA-induced seizures (22). All injections were intraperitoneal (ip).
The Y-maze test of spontaneous alternation was used to evaluate hippocampus-dependent spatial learning (26, 27). Testing began on P27 when animals were first able to decide between the left or right arm of the maze. Testing was performed by a blinded observer on alternate days until P55. Each animal started in the vertical arm of the Y-maze. If the animal selected a different arm on the second run in the maze, it was scored as alternating. The percent alternation over the duration of testing was calculated for each animal.
To determine whether suppression of early cytokine increases would prevent long-term glial activation and improve neurobehavioral outcome after early-life seizures, P15 rats were administered Minozac (Mzc). […] Mzc (5 mg/kg) or diluent (saline) was administered via ip injection at 3 and 9 hr following KA injection on P15 (FIG. 7). Control animals were injected an equal volume of saline (Sal). […]

IL-1β = experiment: ELISA of hippocampal homogenates after KA-induced seizures on P15: IL-1β; assay type: in vivo, rat; conditions: Mzc 5 mg/kg ip at 3 and 9 hr after KA on P15; 12 hr recovery; mean±SEM
Description: (§1) Hippocampal homogenates were prepared by sonication in protease inhibitor cocktail (1 μg leupeptin (Sigma, St. Louis, Mo.), 0.001 M 4-dithio-L-threitol (DTT, Sigma), 0.002 M sodium orthovanadate (Sigma) and 0.001 M phenylmethanesulfonyl fluorid (PMSF, FLUKA, Switzerland) in 1 ml PBS). Total protein concentration was measured using commercially available reagents (BCA, Pierce, Rockford, Ill.).
(§2) Levels of IL-1β, IL-6, and TNF-α, were measured in hippocampal homogenates by enzyme linked immunosorbent assay using commercially available plates and reagents (ELISA; MesoScale Discovery, MSD, Gaithersburg, Md.). S100B levels were measured as described (26). Samples were analyzed in duplicates and compared with known concentrations of protein. Plates were analyzed using the SECTOR Imager 2400 (MSD).
(§3) To determine whether suppression of early cytokine increases would prevent long-term glial activation and improve neurobehavioral outcome after early-life seizures, P15 rats were administered Minozac (Mzc). […] Mzc (5 mg/kg) or diluent (saline) was administered via ip injection at 3 and 9 hr following KA injection on P15 (FIG. 7). Control animals were injected an equal volume of saline (Sal). At 12 hr, animals were sacrificed, and tissues were processed for analysis of pro-inflammatory cytokines by ELISA as above.

IL-6 = experiment: ELISA of hippocampal homogenates after KA-induced seizures on P15: IL-6; assay type: in vivo, rat; conditions: Mzc 5 mg/kg ip at 3 and 9 hr after KA on P15; 12 hr recovery; mean±SEM
Description: as §1, §2, §3

TNF-α = experiment: ELISA of hippocampal homogenates after KA-induced seizures on P15: TNF-α; assay type: in vivo, rat; conditions: Mzc 5 mg/kg ip at 3 and 9 hr after KA on P15; 12 hr recovery; mean±SEM
Description: as §1, §2, §3

S100B [3] = experiment: S100B level in hippocampal homogenates after KA-induced seizures on P15; assay type: in vivo, rat; conditions: Mzc 5 mg/kg ip at 3 and 9 hr after KA on P15; 12 hr recovery; mean±SEM
Description: as §1, §2, §3

GFAP = experiment: Immunohistochemical quantification of GFAP immunoreactive cells in hippocampus (glial activation); assay type: in vivo, rat; conditions: Mzc 5 mg/kg ip at 3 and 9 hr after KA on P15; 30 days recovery; mean±SEM
Description: (§4) Immunohistochemical detection of hippocampal markers of glial activation and astrocyte glutamate transporters was performed in five μm paraffin-embedded sections using Vectastain Elite ABC immunodetection kits and diaminobenzidine substrate (DAB) (Vector Laboratories, Burlingame Calif.). The following primary antibodies were used: GFAP (1:1500, mouse monoclonal, Sigma); S100B (1:1500, rabbit polyclonal, DAKO Cytomation, Carpinteria, Calif.); Ibal (1:400, goat polyclonal, Abcam, Cambridge, Mass.); FH (1:400, goat polyclonal, Quidel); β-clusterin (1:100, goat polyclonal, Santa Cruz); GLAST (1:5000 guinea pig polyclonal, Chemicon International, Temecula, Calif.) and GLT-1 (1:5000, guinea pig polyclonal, Chemicon). Control sections were incubated in normal serum or PBS in place of primary antibody. […]
(§5) Sections were examined under brightfield microscopy by two blinded observers (Nikon Eclipse E800). For GFAP, S100B, Ibal, FH, clusterin, GLAST and GLT-1 sections, the CAI, CA2, CA3, DG and PoDG were photographed at 10× magnification, and images were converted to grayscale for quantification of immunoreactive cells. The percentage of positive cells in the hippocampal regions specified was measured by thresholding for dark objects indicative of immunoreactive cells (Metamorph, Universal Imaging Corporation, Sunnyvale, Calif.). […] Changes in the morphology of immunoreactive cells were not assessed. […]

S100B [4] = experiment: Immunohistochemical quantification of S100B immunoreactive cells in hippocampus (glial activation); assay type: in vivo, rat; conditions: Mzc 5 mg/kg ip at 3 and 9 hr after KA on P15; 30 days recovery; mean±SEM
Description: as §4, §5

[5] = test system: Alzheimer's disease mouse model; conditions: cited from earlier work
[6] = cited from earlier work

Row | SMILES | solubility in DMSO [1] | percent alternation in Y-maze [2] | IL-1β level in hippocampal brain homogenates (IL-1β) | IL-6 level in hippocampal brain homogenates (IL-6) | TNF-α level in hippocampal brain homogenates (TNF-α) | S100B level in hippocampal brain homogenates (S100B [3]) | GFAP immunoreactive cells in hippocampus (GFAP) | S100B immunoreactive cells in hippocampus (S100B [4]) | effect on hippocampal pro-inflammatory cytokine upregulation [5] | effect on hippocampal-dependent behavioral deficits [5] | effect on synaptic dysfunction [5] | CNS penetration [6] | bioavailability [6] | toxicity [6] | water solubility [6]
1 | Cc1cc(-c2ccccc2)nnc1N1CCN(c2ncccn2)CC1.Cl.Cl [2-(4-(4-methyl-6-phenylpyridazin-3-yl)piperazin-1-yl)pyrimidine dihydrochloride salt] | soluble in DMSO | – | – | – | – | – | – | – | – | – | – | – | – | – | –
2 | Cc1cc(-c2ccccc2)nnc1N1CCN(c2ncccn2)CC1 [Mzc, 2-(4-(4-methyl-6-phenylpyridazin-3-yl)piperazin-1-yl)pyrimidine dihydrochloride monohydrate] | – | 79.5±2.5 % alternation | 103.7±4.6 % control | 103.2±3.8 % control | 98.5±3.9 % control | 89.1±9.7 % control | 20.9±1.8 % immuno-positive cells | 8.1±0.9 % immuno-positive cells | inhibits hippocampal pro-inflammatory cytokine upregulation | attenuates hippocampal-dependent behavioral deficits | suppresses synaptic dysfunction | CNS-penetrant | bioavailable | non-toxic | water-soluble
